Assay results from patent US6462040B1, “Cis-substituted aminocyclopropane derivative” (Daiicho Pharmaceutical Co., Ltd., priority 1996, dated 2002).
≈ marks a conversion by molar mass, not a printed value.

How the values were obtained:
Assay in all cases: Antimicrobial activity, MIC (standard method of the Japan Chemotherapeutic Society)
Assay type in all cases: cell-based
[1] = system: Pr. vulgaris, 08601
Description: (§1) The present invention will further be illustrated in greater detail by way of Examples and Reference Examples, but the present invention should not be construed as being limited thereto. The antimicrobial activity of the compounds prepared was examined in accordance with the standard method specified by the Japan Chemotherapeutic Society, and the results obtained were expressed in terms of minimum inhibitory concentration (MIC; μg/ml).

[2] = system: Str. faecalis, ATCC-19433
Description: as §1

[3] = system: Pr. mirabilis, IFO-3849
Description: as §1

[4] = system: Ps. maltophilia, IID-1275
Description: as §1

[5] = system: Ser. marcescens, 10100
Description: as §1

[6] = system: Ps. aeruginosa, 32121
Description: as §1

[7] = system: S. aureus, 870307
Description: as §1

[8] = system: S. epidermidis, 56500
Description: as §1

[9] = system: Ps. aeruginosa, 32104
Description: as §1

[10] = system: Str. pyogenes, G-36
Description: as §1

[11] = system: S. aureaus, 209P
Description: as §1

[12] = system: E. coli, NIHJ
Description: as §1

[13] = system: S. flexneli, 2A 5503
Description: as §1

`Cc1c(N2CCC([C@@H]3C[C@@H]3N)C2)c(F)c(N)c2c(=O)c(C(=O)O)cn([C@@H]3C[C@@H]3F)c12` (single isomer, unassigned; isomer b) [Example 3] was tested, and the MIC [1] was 0.05 µg/mL (≈ 0.119 µM), the MIC [2] was 0.025 µg/mL (≈ 0.0597 µM) and the MIC [3] was 0.05 µg/mL (≈ 0.119 µM). The MIC [4] was 0.05 µg/mL (≈ 0.119 µM), the MIC [5] was 0.10 µg/mL (≈ 0.239 µM) and the MIC [6] was 0.10 µg/mL (≈ 0.239 µM). The MIC [7] was 0.025 µg/mL (≈ 0.0597 µM), the MIC [8] was 6 ng/mL (≈ 0.0143 µM) and the MIC [9] was 0.20 µg/mL (≈ 0.478 µM). The MIC [10] was 6 ng/mL (≈ 0.0143 µM), the MIC [11] was “≦0.003 μg/ml” and the MIC [12] was “≦0.003 μg/ml”. For the same compound, the MIC [13] was “≦0.003 μg/ml”.
